The text below walks through data of BindingDB's records for doi:10.1016/j.bmcl.2014.06.082 (Friedrich Alexander University, 2014).

For the assay, the target named is T1, G protein-coupled receptor (Human cytomegalovirus, UniProt Q9IP65).
T1 sequence (Q9IP65 whole entry): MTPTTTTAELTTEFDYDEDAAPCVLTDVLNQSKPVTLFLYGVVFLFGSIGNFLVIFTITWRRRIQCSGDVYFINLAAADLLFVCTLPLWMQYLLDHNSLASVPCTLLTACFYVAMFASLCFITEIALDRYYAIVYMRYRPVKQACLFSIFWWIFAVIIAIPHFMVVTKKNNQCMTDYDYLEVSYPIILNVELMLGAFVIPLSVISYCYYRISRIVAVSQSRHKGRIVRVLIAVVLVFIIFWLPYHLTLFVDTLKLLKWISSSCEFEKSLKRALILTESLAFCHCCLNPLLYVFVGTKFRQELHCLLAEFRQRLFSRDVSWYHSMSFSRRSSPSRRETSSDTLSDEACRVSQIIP
The assay is described as follows: Allosteric modulatory activity at FLAG-tagged human cytomegalovirus US28 receptor delta300 mutant expressed in HEK293T cells by PathDetectElk1 assay.

What is called EC50 is the concentration giving half of the maximal effect. A lower EC50 goes with a more potent agent. As for `CCCCCCCCCC(=O)N(CCN(C)C)CC1(C)Cc2ccccc2C(=O)N1` (configuration not stated), the EC50 was under 10 µM.
Under `N#CC(CCCN1CCC(O)(c2ccc(Cl)cc2)CC1)(c1ccccc1)c1ccccc1` [5-[4-(4-Chloro-phenyl)-4-hydroxy-piperidin-1-yl]-2,2-diphenyl-pentanenitrile] stands under 10 µM.
